Reference: US8586505B2 (SDS Biotech K. K., priority 2009, dated 2013)

How the values were obtained:
Phytophthora infestans = assay: whole plant or invertebrate; format: in vivo; conditions: in Solanum lycopersicum, 96 h, read-out: Determination of control effect (preventive value)
[1] = tested on: Pseudoperonospora cubensis; assay: Test of examining control effect on Pseudoperonospora cubensis (potted cucumber plants); format: in vivo; conditions: 96 h, 10% wettable powder adjusted to 125 ppm, 15 ml/pot sprayed on potted cucumber plants one day before spray inoculation, assessed after 1 day wet chamber and 3 days greenhouse, read-out: Determination of control effect (preventive value) on Pseudoperonospora cubensis
Method in brief: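 Preventive treatment: 125 ppm sample agent solution (from 10% wettable powder) sprayed at 15 ml/pot on 2.5-leaf Sagamihanjiro cucumbers, then P. cubensis inoculated next day at 1.0×10^4 cells/ml. Incubation was 1 day wet at 21° C plus 3 days greenhouse. Lesion area rate compared with untreated gives preventive value (≥60% high).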

Sphaerotheca fuliginea = assay: Test of examining control effect on Sphaerotheca fuliginea (potted cucumber plants); format: in vivo; conditions: Podosphaera fuliginea, 336 h; 10% wettable powder adjusted to 125 ppm, 15 ml/pot sprayed on potted cucumber plants one day before spray inoculation; assessed after 14 days in greenhouse; read-out: Determination of control effect (preventive value) on Sphaerotheca fuliginea
Method in brief: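 Control effect rated high at preventive value 60–100% and low below 60%, from lesion area relative to untreated plants 14 days after spray inoculation with S. fuliginea (1.0×10^5 cells/ml). Compound applied at 125 ppm as wettable-powder spray one day before inoculation, on 2nd-leaf-stage Sagamihanjiro cucumber.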

| Compound | pest or weed control at 125 ppm (Phytophthora infestans) [%] | pest or weed control at 125 µg/mL [1] [%] | pest or weed control at 125 µg/mL (Sphaerotheca fuliginea) [%] | melting point [°C] |
| --- | --- | --- | --- | --- |
| FC(F)(F)c1cc(C#CCCNc2ncnc3sccc23)cc(C(F)(F)F)c1 [compound 28] | 0 to 60 | 0 to 60 | 0 to 60 | 163 to 166 |
| C(#Cc1ccncc1)CCNc1ncnc2sccc12 [compound 57] | 0 to 60 | 0 to 60 | 0 to 60 | 140 to 141 |
| Cc1cc(C)nc(C#CCCNc2ncnc3sccc23)n1 [compound 59] | 0 to 60 | 0 to 60 | 0 to 60 | 112 to 113 |
| C(#Cc1cncs1)CCNc1ncnc2sccc12 [compound 61] | 60 to 100 | 60 to 100 | 60 to 100 | 156 to 158 |
| C(#Cc1nccs1)CCNc1ncnc2sccc12 [compound 62] | 60 to 100 | 60 to 100 | 60 to 100 | 128 to 129 |
| C(#Cc1cscn1)CCNc1ncnc2sccc12 [compound 63] | 60 to 100 | 60 to 100 | 60 to 100 | 174 |
| Cc1scnc1C#CCCNc1ncnc2sccc12 [compound 65] | 60 to 100 | 60 to 100 | 60 to 100 | 148 to 150 |
| Cc1nc(C#CCCNc2ncnc3sccc23)cs1 [compound 66] | 0 to 60 | 60 to 100 | 0 to 60 | 160 to 161 |
| OCc1nc(C#CCCNc2ncnc3sccc23)cs1 [compound 70] | 60 to 100 | 60 to 100 | 60 to 100 | 193 |
| CC(=O)OCc1nc(C#CCCNc2ncnc3sccc23)cs1 [compound 73] | 60 to 100 | 60 to 100 | 60 to 100 | 128 to 129 |
| C(#Cc1csc(-c2ccccc2)n1)CCNc1ncnc2sccc12 [compound 76, 4-[4-(2-Phenylthiazol-4-yl)-3-butynylamino]thieno[2,3-d]pyrimidine] | 0 to 60 | 60 to 100 | 60 to 100 | 134 to 136 |
| C(#Cc1csc(-c2ccoc2)n1)CCNc1ncnc2sccc12 [compound 78] | 0 to 60 | 60 to 100 | 60 to 100 | 140 to 142 |
| C(#Cc1csc(-c2ccsc2)n1)CCNc1ncnc2sccc12 [compound 80] | 0 to 60 | 60 to 100 | 60 to 100 | 55 to 56 |
| C(#Cc1csc(-c2cccnc2)n1)CCNc1ncnc2sccc12 [compound 81] | 0 to 60 | 60 to 100 | 0 to 60 | 175 to 177 |
| C=C(C#CCCNc1ncnc2ccccc12)CO [compound 92] | 60 to 100 | 60 to 100 | 0 to 60 | 139 |
| C(#Cc1ccccc1)CCNc1ncnc2ccccc12 [compound 96] | 60 to 100 | 60 to 100 | 60 to 100 | 120 to 122 |
| C=C(C)CCc1ccccc1C#CCCNc1ncnc2ccccc12 [compound 105] | 60 to 100 | 60 to 100 | 60 to 100 | 92 to 94 |
| CSc1cccc(C#CCCNc2ncnc3ccccc23)c1 [compound 116] | 60 to 100 | 60 to 100 | 60 to 100 | 141 to 142 |
| CCOc1ccccc1C#CCCNc1ncnc2ccccc12 [compound 118] | 60 to 100 | 60 to 100 | 60 to 100 | 119 to 120 |
| CS(=O)(=O)c1ccc(C#CCCNc2ncnc3ccccc23)cc1 [compound 120] | 60 to 100 | 60 to 100 | 60 to 100 | 164 to 165 |
| CCOC(=O)c1ccc(C#CCCNc2ncnc3ccccc23)cc1 [compound 129] | 0 to 60 | 60 to 100 | 0 to 60 | 137 to 138 |

| Compound | pest or weed control at 125 ppm (Phytophthora infestans) [%] | pest or weed control at 125 µg/mL [1] [%] | pest or weed control at 125 µg/mL (Sphaerotheca fuliginea) [%] | melting point [°C] |
| --- | --- | --- | --- | --- |
| OCc1cccc(C#CCCNc2ncnc3ccccc23)c1 [compound 131] | 60 to 100 | 60 to 100 | 60 to 100 | 113 to 115 |
| OCc1ccc(C#CCCNc2ncnc3ccccc23)cc1 [compound 132] | 0 to 60 | 60 to 100 | 0 to 60 | 69 to 71 |
| OC(c1ccccc1C#CCCNc1ncnc2ccccc12)C(F)(F)F (stereo not drawn) [compound 138] | 0 to 60 | 0 to 60 | 0 to 60 | 183 to 187 |
| COCc1cc(F)c(F)cc1C#CCCNc1ncnc2ccccc12 [compound 146] | 60 to 100 | 60 to 100 | 60 to 100 | 121 to 125 |
| C(#Cc1ccc(OC2CCCCO2)cc1)CCNc1ncnc2ccccc12 (stereo not drawn) [compound 156] | 60 to 100 | 60 to 100 | 60 to 100 | 163 to 165 |
| Fc1cc(Cl)ccc1C#CCCNc1ncnc2ccccc12 [compound 164] | 60 to 100 | 60 to 100 | 60 to 100 | 198 to 199 |
| N#Cc1c(F)cccc1C#CCCNc1ncnc2ccccc12 [compound 165] | 0 to 60 | 60 to 100 | 60 to 100 | 163 to 164 |
| Fc1ccc(C#CCCNc2ncnc3ccccc23)cc1F [compound 166] | 60 to 100 | 60 to 100 | 60 to 100 | 161 to 162 |
| Clc1cccc(C#CCCNc2ncnc3ccccc23)c1Cl [compound 171] | 60 to 100 | 60 to 100 | 60 to 100 | 175 to 176 |
| Clc1ccc(C#CCCNc2ncnc3ccccc23)c(Cl)c1 [compound 172] | 60 to 100 | 60 to 100 | 60 to 100 | 182 to 183 |
| Clc1ccc(Cl)c(C#CCCNc2ncnc3ccccc23)c1 [compound 173] | 0 to 60 | 60 to 100 | 60 to 100 | 176 to 177 |
| Clc1cccc(Cl)c1C#CCCNc1ncnc2ccccc12 [compound 174] | 60 to 100 | 60 to 100 | 60 to 100 | 153 to 155 |
| Clc1ccc(C#CCCNc2ncnc3ccccc23)cc1Cl [compound 175] | 0 to 60 | 60 to 100 | 60 to 100 | 147 to 148 |
| FC(F)(F)c1ccc(Cl)c(C#CCCNc2ncnc3ccccc23)c1 [compound 176] | 0 to 60 | 60 to 100 | 60 to 100 | 144 to 145 |
| COc1ccc(Cl)cc1C#CCCNc1ncnc2ccccc12 [compound 179] | 60 to 100 | 60 to 100 | 60 to 100 | 147 to 149 |
| C(#Cc1ccc2ccccc2c1)CCNc1ncnc2ccccc12 [compound 183] | 60 to 100 | 60 to 100 | 60 to 100 | 159 to 160 |
| Fc1cncc(C#CCCNc2ncnc3ccccc23)c1 [compound 193] | 60 to 100 | 60 to 100 | 60 to 100 | 145 to 150 |
| Clc1ncccc1C#CCCNc1ncnc2ccccc12 [compound 195] | 60 to 100 | 60 to 100 | 60 to 100 | 168 to 170 |
| FC(F)(F)c1ccc(C#CCCNc2ncnc3ccccc23)cn1 [compound 198] | 0 to 60 | 60 to 100 | 60 to 100 | 134 to 139 |
| OCc1cnccc1C#CCCNc1ncnc2ccccc12 [compound 201] | 0 to 60 | 60 to 100 | 60 to 100 | 182 to 186 |
| OCc1ccc(C#CCCNc2ncnc3ccccc23)cn1 [compound 202] | 0 to 60 | 60 to 100 | 0 to 60 | 183 to 185 |
